The values below come from ChEMBL document CHEMBL3792313, “Rational design, synthesis and 2D-QSAR study of novel vasorelaxant active benzofuran-pyridine hybrids” (Bioorg Med Chem Lett, 2016).

Structures can show the parent of a compound that is named as a salt.

For this assay, the system named is Thoracic aorta. In words: Vasodilative activity in isolated Wistar rat thoracic aorta assessed as inhibition of norepinephrine hydrochloride-induced contraction. It counts as functional, tissue-based.

Take `CCn1cc(-c2cc(-c3cc4ccccc4o3)nc(OC)c2C#N)c2ccccc21`: the IC50 was found to be 299 µM.

Consider `COc1nc(-c2cc3ccccc3o2)cc(-c2cccc3ccccc23)c1C#N`, for which the IC50 came out at 359 µM.

For `CCOc1nc(-c2cc3ccccc3o2)cc(-c2cc(OC)ccc2OC)c1C#N`, the IC50 amounted to 327 µM.

On to `CCOc1nc(-c2cc3ccccc3o2)cc(-c2ccc(C)o2)c1C#N`, for which the IC50 stood at 417 µM.

Regarding `CCOc1nc(-c2cc3ccccc3o2)cc(-c2ccc(C)cc2)c1C#N`, the IC50 came to 290 µM.

As for `CCOc1nc(-c2cc3ccccc3o2)cc(-c2ccc(OC)cc2)c1C#N`, the IC50 turned out to be 204 µM.

As to `COc1nc(-c2cc3ccccc3o2)cc(-c2ccc3ccccc3c2)c1C#N`, the IC50 stood at 320 µM.

`CCOc1nc(-c2cc3ccccc3o2)cc(-c2ccc(Br)cc2)c1C#N`: the IC50 amounted to 227 µM.

As for `COc1ccc(-c2cc(-c3cc4ccccc4o3)nc(OC)c2C#N)c(OC)c1`, the IC50 was 425 µM.

`COc1nc(-c2cc3ccccc3o2)cc(-c2cn(C)c3ccccc23)c1C#N`: the IC50 stood at 262 µM.

Consider `COc1nc(-c2cc3ccccc3o2)cc(-c2ccc(C)o2)c1C#N`, for which the IC50 turned out to be 285 µM.

Regarding `COc1nc(-c2cc3ccccc3o2)cc(-c2ccc(Cl)cc2)c1C#N`, the IC50 stood at 286 µM.

Consider `COc1nc(-c2cc3ccccc3o2)cc(-c2cccs2)c1C#N`, for which the IC50 worked out at 163 µM.

As to `CCOc1nc(-c2cc3ccccc3o2)cc(-c2cccs2)c1C#N`, the IC50 is 308 µM.

As to `CCOc1nc(-c2cc3ccccc3o2)cc(-c2ccccc2)c1C#N`, the IC50 is 310 µM.

`CCOc1nc(-c2cc3ccccc3o2)cc(-c2ccc(N(C)C)cc2)c1C#N`: the IC50 is 338 µM.

Regarding `COc1ccc(-c2cc(-c3cc4ccccc4o3)nc(OC)c2C#N)cc1`, the IC50 was 262 µM.

In the case of `COc1nc(-c2cc3ccccc3o2)cc(-c2ccc(F)cc2)c1C#N`, the IC50 is 321 µM.

Turning to `CCOc1nc(-c2cc3ccccc3o2)cc(-c2cc(OC)c(OC)c(OC)c2)c1C#N`, the IC50 was 365 µM.

Turning to `CCOc1nc(-c2cc3ccccc3o2)cc(-c2ccc(Cl)cc2)c1C#N`, the IC50 amounted to 221 µM.

As to `COc1nc(-c2cc3ccccc3o2)cc(-c2ccc(C)cc2)c1C#N`, the IC50 is 266 µM.

For `COc1ccc(OC)c(-c2cc(-c3cc4ccccc4o3)nc(OC)c2C#N)c1`, the IC50 came out at 246 µM.

For the compound `COc1nc(-c2cc3ccccc3o2)cc(-c2ccc(N(C)C)cc2)c1C#N`, the IC50 was found to be 278 µM.

`COc1nc(-c2cc3ccccc3o2)cc(-c2ccc(Cl)cc2Cl)c1C#N`: the IC50 amounted to 322 µM.

Take `CCOc1nc(-c2cc3ccccc3o2)cc(-c2cccc3ccccc23)c1C#N`: the IC50 stood at 344 µM.

Take `COc1cc(-c2cc(-c3cc4ccccc4o3)nc(OC)c2C#N)cc(OC)c1OC`: the IC50 came to 310 µM.

Regarding `COc1nc(-c2cc3ccccc3o2)cc(-c2ccc(Br)cc2)c1C#N`, the IC50 amounted to 298 µM.

Take `CCOc1nc(-c2cc3ccccc3o2)cc(-c2cn(C)c3ccccc23)c1C#N`: the IC50 was determined as 327 µM.

For `CCOc1nc(-c2cc3ccccc3o2)cc(-c2cn(CC)c3ccccc23)c1C#N`, the IC50 was 358 µM.

As for `COc1nc(-c2cc3ccccc3o2)cc(-c2ccccc2)c1C#N`, the half-inhibitory concentration (IC50) amounted to 232 µM.

In the case of `CCOc1nc(-c2cc3ccccc3o2)cc(-c2ccc(Cl)cc2Cl)c1C#N`, the IC50 is 442 µM.

As to `CCOc1nc(-c2cc3ccccc3o2)cc(-c2ccc(OC)cc2OC)c1C#N`, the IC50 amounted to 488 µM.

Take `CCOc1nc(-c2cc3ccccc3o2)cc(-c2ccc3ccccc3c2)c1C#N`: the IC50 stood at 423 µM.

For the compound `CCOc1nc(-c2cc3ccccc3o2)cc(-c2ccc(F)cc2)c1C#N`, the IC50 stood at 396 µM.

In the case of `CCCCc1oc2ccccc2c1C(=O)c1cc(I)c(OCCN(CC)CC)c(I)c1` [AMIODARONE HYDROCHLORIDE], the IC50 is 312 µM.

A word on the IC50: it is the concentration that gives 50% inhibition.
